This experiment concerns rat adrenal angiotensin II receptors. The experiment in a line: displacement of radioligand [^125 I]-SIAII specifically bound to rat adrenal angiotensin II receptors. To be noted: 60 min at 25° C. The experiment is classed as binding. The procedure:
The affinity of the products of the Examples for angiotensin II receptors is evaluated by the technique of displacing a radioligand specifically bound to rat adrenal angiotensin II receptors.
An aliquot of a rat adrenal gland homogenate incubates in the presence of a single concentration of [^125 I]-SIAII (Sar^1,Tyr^4,Ile^8 -angiotensin II), which is an angiotensin II receptor antagonist, and two concentrations of competing agents (10^-5 M, 10^-7 M) for 60 min at 25° C.
The reaction is completed by the addition of a buffer, followed by rapid filtration through glasspaper filters. The non-specific binding is determined in the presence of angiotensin II.
The results are expressed, for the concentrations tested, as the percentage displacement of the radioligand specifically bound to the adrenal angiotensin II receptors.

On to `CCCc1nc(C)sc1Cc1ccc(NC(=O)c2ccccc2S(=O)(=O)O)cc1` [Example 11, 2-[4-(2-methyl-4-propylthiazol-5-ylmethyl)phenylaminocarbonyl]benzosulfonic acid], for which the “% displacement of the labeled ligand” value is recorded as 94% (1E-5M competing agent, 10 µM) and 59% (1E-7M competing agent, 0.1 µM).

On to `CCCc1nc(CNC(=O)OCC)sc1Cc1ccc(NC(=O)c2ccccc2S(=O)(=O)O)cc1` [Example 30, 2-[4-(2-Ethoxycarbonylaminomethyl-4-propylthiazol-5-ylmethyl)phenylaminocarbonyl]benzosulfonic acid], for which the “% displacement of the labeled ligand” value is recorded as 84% (1E-5M competing agent, 10 µM) and 29% (1E-7M competing agent, 0.1 µM).

As for `CCCc1nc(COC)sc1Cc1ccc(NC(=O)c2ccccc2S(=O)(=O)O)cc1` [Example 19, 2-[4-(2-Methoxymethyl-4-propylthiazol-5-yl-methyl)phenylaminocarbonyl]benzosulfonic acid], the “% displacement of the labeled ligand” value reads like this: (1E-5M competing agent, 10 µM) 89%; (1E-7M competing agent, 0.1 µM) 55%.

In the case of `CCCc1nc(CC(=O)OC)sc1Cc1ccc(NC(=O)c2ccccc2S(=O)(=O)O)cc1` [Example 26, 2-[4-(2-methoxycarbonylmethyl-4-propylthiazol-5-ylmethyl)phenylaminocarbonyl]benzosulfonic acid], the “% displacement of the labeled ligand” value reads like this: (1E-5M competing agent, 10 µM) 86%; (1E-7M competing agent, 0.1 µM) 22%.

In the case of `CCCCCc1nc(N)sc1Cc1ccc(NC(=O)c2ccccc2S(=O)(=O)O)cc1` [Example 44, 2-[4-(2-Amino-4-pentylthiazol-5-ylmethyl)phenylaminocarbonyl]benzosulfonic acid], the “% displacement of the labeled ligand” value runs as follows: (1E-5M competing agent, 10 µM) 91%; (1E-7M competing agent, 0.1 µM) 44%.

On to `CCCCCc1nc(C)sc1Cc1ccc(NC(=O)c2ccccc2S(=O)(=O)O)cc1` [Example 40, 2-[4-(2-methyl-4-pentylthiazol-5-ylmethyl)phenylaminocarbonyl]benzosulfonic acid], for which the “% displacement of the labeled ligand” value is, setting by setting: (1E-5M competing agent, 10 µM) 88%; (1E-7M competing agent, 0.1 µM) 59%.

For `CCCc1nc(N)sc1Cc1ccc(NC(=O)c2c(Cl)ccc(Cl)c2C(=O)O)cc1` [Example 41, 2-[4-(2-Amino-4-propylthiazol-5-ylmethyl)phenylaminocarbonyl]-3,6-dichlorobenzoic acid], the “% displacement of the labeled ligand” value (1E-5M competing agent, 10 µM) is on record as 87% and the “% displacement of the labeled ligand” value (1E-7M competing agent, 0.1 µM) turned out to be 9%.

For the molecule `CCCc1nc(SCCCC(=O)OCC)sc1Cc1ccc(NC(=O)c2ccccc2S(=O)(=O)O)cc1` [Example 15, Ethyl 4-[[4-propyl-5-(4-(2-sulfobenzoylamino)benzyl)thiazol-2-yl]mercapto]butyrate], the “% displacement of the labeled ligand” value runs as follows: (1E-5M competing agent, 10 µM) 79%; (1E-7M competing agent, 0.1 µM) 0%.

Regarding `CCCc1nc(NC(C)=O)sc1Cc1ccc(NC(=O)c2ccccc2S(=O)(=O)O)cc1` [Example 36, 2-[4-(2-Acetamido-4-propylthiazol-5-yl-methyl)phenylaminocarbonyl]benzosulfonic acid], the “% displacement of the labeled ligand” value was found to be 84% (1E-5M competing agent, 10 µM) and 3% (1E-7M competing agent, 0.1 µM).

For `Cc1nc(C)c(Cc2ccc(NC(=O)c3ccccc3C(=O)O)cc2)s1` [Example 4, 2-[4-((2,4-Dimethylthiazol-5-yl)methyl)phenylaminocarbonyl]benzoic acid], the “% displacement of the labeled ligand” value by setting is: (1E-5M competing agent, 10 µM) 58%; (1E-7M competing agent, 0.1 µM) 0%.

`CCCc1nc(NCC(=O)OC)sc1Cc1ccc(NC(=O)c2ccccc2S(=O)(=O)O)cc1` [Example 22, Methyl (4-propyl-5-(4-(2-sulfobenzoylamino)benzyl)thiazol-2-yl)aminoacetate]: the “% displacement of the labeled ligand” value is 89% (1E-5M competing agent, 10 µM) and 5% (1E-7M competing agent, 0.1 µM).

On to `CCOC(=O)CNc1nc(C)c(Cc2ccc(NC(=O)c3ccccc3C(=O)O)cc2)s1` [Example 7, Ethyl (4-methyl-5-(4-(2-carboxybenzoylamino)benzyl)thiazol-2-yl)aminoacetate], for which the “% displacement of the labeled ligand” value reads like this: (1E-5M competing agent, 10 µM) 35%; (1E-7M competing agent, 0.1 µM) 0%.

Regarding `CCCc1nc(N)sc1Cc1ccc(NC(=O)c2ccccc2S(=O)(=O)O)cc1` [Example 33, 2-[4-(2-Amino-4-propylthiazol-5-ylmethyl)phenylaminocarbonyl]benzosulfonic acid], the “% displacement of the labeled ligand” value was found to be 85% (1E-5M competing agent, 10 µM) and 27% (1E-7M competing agent, 0.1 µM).

For the origin of these results see patent US5192781A, “Thiazole derivatives which are angiotensin II receptor antagonists, their methods of preparation and pharmaceutical compositions in which they are present” (Laboratoires UPSA, priority 1991, dated 1993).
